Reference: patent US6803380B1, “5-aryl-1h-1,2,4-triazole compounds as inhibitors of cyclooxygenase-2 and pharmaceutical compositions containing them” (Laboratoire Theramex, priority 1999, dated 2004)
Like-named read-outs stand apart in the source and are kept apart here. Each block holds one compound with its values, some of them ahead of it.

Tests used:
COX-1 = target: T1, COX-1 (Ovis aries, UniProt P05979); experiment: Inhibition of purified COX-1 activity in vitro (PGE2 by enzymo-immunoassay); format: biochemical, ram; conditions: for % COX-1 inhibition: negative sign = inhibition
T1 construct: Purified COX-1 from ram seminal vesicles; purchased Cayman Chemicals; host or cells: ram seminal vesicles (tissue-purified)
T1 sequence (P05979 25-600): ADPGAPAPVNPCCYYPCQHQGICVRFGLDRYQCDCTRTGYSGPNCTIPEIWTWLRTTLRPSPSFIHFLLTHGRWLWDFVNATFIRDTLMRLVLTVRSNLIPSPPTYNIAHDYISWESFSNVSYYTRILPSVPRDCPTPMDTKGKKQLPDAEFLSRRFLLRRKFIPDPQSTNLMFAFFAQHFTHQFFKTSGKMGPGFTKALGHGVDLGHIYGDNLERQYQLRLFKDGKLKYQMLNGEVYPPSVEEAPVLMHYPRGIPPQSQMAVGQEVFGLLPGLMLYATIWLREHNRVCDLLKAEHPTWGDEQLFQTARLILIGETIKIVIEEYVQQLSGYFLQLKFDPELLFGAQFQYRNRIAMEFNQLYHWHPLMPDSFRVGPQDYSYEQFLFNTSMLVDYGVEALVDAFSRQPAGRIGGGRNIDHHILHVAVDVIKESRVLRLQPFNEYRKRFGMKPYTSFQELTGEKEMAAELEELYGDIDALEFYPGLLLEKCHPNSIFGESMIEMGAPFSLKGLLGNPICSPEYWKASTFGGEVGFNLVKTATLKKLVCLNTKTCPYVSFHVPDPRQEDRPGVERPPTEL
Description: (§1) Example compounds according to the invention were tested for their ability to inhibit COX-1 and/or COX-2 activities in vitro. Purified COX-1 from ram seminal vesicles and purified COX-2 from ewe placenta (both from Cayman Chemicals) were incubated for 10 minutes at 25° C. in the presence of their substrate, arachidonic acid (5 μM), with or without test compounds or standard inhibitors. Prostaglandin E2, the reaction product, was measured by enzymo-immunoassay (R&D Systems). Each individual value results from duplicate determinations. Final inhibition data are means±standard errors of at least (3) independent experiments performed on as many different days.

COX-2 = target: T2, COX-2 (Ovis aries, UniProt P79208); experiment: Inhibition of purified COX-2 activity in vitro (PGE2 by enzymo-immunoassay); format: biochemical, ewe; conditions: for COX-2 inhibitory potency compared with nimesulide (in words): same concentration, 1 μM
T2 construct: purified COX-2 from ewe placenta; purchased Cayman Chemicals; host or cells: ewe placenta (tissue-purified)
T2 sequence (P79208 17-603): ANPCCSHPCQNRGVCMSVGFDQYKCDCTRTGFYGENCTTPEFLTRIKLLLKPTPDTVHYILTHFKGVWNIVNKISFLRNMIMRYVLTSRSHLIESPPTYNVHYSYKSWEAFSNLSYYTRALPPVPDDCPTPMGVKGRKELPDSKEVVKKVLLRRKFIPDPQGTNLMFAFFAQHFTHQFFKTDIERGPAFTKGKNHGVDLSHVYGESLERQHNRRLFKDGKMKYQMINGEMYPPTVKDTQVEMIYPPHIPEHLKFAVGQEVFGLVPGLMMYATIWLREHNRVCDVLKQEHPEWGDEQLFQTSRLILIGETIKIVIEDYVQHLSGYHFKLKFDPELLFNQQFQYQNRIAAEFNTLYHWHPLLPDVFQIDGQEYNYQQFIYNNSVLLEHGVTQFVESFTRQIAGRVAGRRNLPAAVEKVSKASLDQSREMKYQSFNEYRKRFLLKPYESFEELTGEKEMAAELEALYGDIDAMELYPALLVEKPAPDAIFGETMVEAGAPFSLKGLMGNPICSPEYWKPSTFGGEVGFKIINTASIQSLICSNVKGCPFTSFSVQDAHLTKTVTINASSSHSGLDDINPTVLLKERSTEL
Description: as §1

[1] = concentration 1 μM, read-out: % COX-2 inhibition

Compound: CS(=O)(=O)c1ccc(-c2nc(C(F)(F)F)nn2-c2cccnc2)cc1.Cl
- melting point: 180 °C

Compound: Cc1nc(-c2ccc(S(C)(=O)=O)cc2)n(-c2ccc(F)cc2)n1 [Example 2, 1-(4-fluoro-phenyl)-3-methyl-5-(4-methylsulfonyl-phenyl)-1H-1,2,4-triazole]
- melting point: 180 °C

Compound: Cc1nc(-c2ccc(S(C)(=O)=O)cc2)n(-c2ccc(Cl)cc2)n1 [Example 3, 1-(4-chloro-phenyl)-3-methyl-5-(4-methylsulfonyl-phenyl)-1H-1,2,4-triazole]
- inhibition of COX-1 (in words) (COX-1; concentration 1 μM): did not show any significant inhibition of COX-1
- % COX-1 inhibition (COX-1; concentration 1 μM): −2 ± 5.7%
- selective inhibition of COX-2 (in words) (COX-2; concentration 1 μM): able to inhibit COX-2 selectively
- inhibition at 1 µM (COX-2; [1]): 19 ± 2.6%
- melting point: 186 °C

Compound: Cc1ccc(-n2nc(C)nc2-c2ccc(S(C)(=O)=O)cc2)cc1 [Example 4, 3-methyl-1-(4-methyl-phenyl)-5-(4-methylsulfonyl-phenyl)-1H-1,2,4-triazole]
- melting point: 176 °C

Compound: Cc1nc(-c2ccc(S(C)(=O)=O)cc2)n(-c2ccccc2)n1 [Example 5, 3-methyl-5-(4-methylsulfonyl-phenyl)-1-phenyl-1H-1,2,4-triazole]
- melting point: 146 °C

Compound: Cc1nc(-c2ccc(S(C)(=O)=O)cc2)n(-c2ccccc2Cl)n1 [Example 6, 1-(2-chloro-phenyl)-3-methyl-5-(4-methylsulfonyl-phenyl)-1H-1,2,4-triazole]
- melting point: 170 °C

Compound: Cc1nc(-c2ccc(S(C)(=O)=O)cc2)n(-c2cccc(Cl)c2)n1 [Example 7, 1-(3-chloro-phenyl)-3-methyl-5-(4-methylsulfonyl-phenyl)-1H-1,2,4-triazole]
- melting point: 130 °C

Compound: Cc1nc(-c2ccc(S(C)(=O)=O)cc2)n(-c2ccc(Br)cc2)n1 [Example 9, 1-(4-bromo-phenyl)-3-methyl-5-(4-methylsulfonyl-phenyl)-1H-1,2,4-triazole]
- melting point: 188 °C

Compound: COc1ccc(-n2nc(C)nc2-c2ccc(S(C)(=O)=O)cc2)cc1 [Example 10, 1-(4-methoxy-phenyl)-3-methyl-5-(4-methylsulfonyl-phenyl)-1H-1,2,4-triazole]
- inhibition of COX-1 (in words) (COX-1; concentration 1 μM): did not show any significant inhibition of COX-1
- % COX-1 inhibition (COX-1; concentration 1 μM): −4 ± 14.6%
- selective inhibition of COX-2 (in words) (COX-2; concentration 1 μM): able to inhibit COX-2 selectively
- inhibition at 1 µM (COX-2; [1]): 32 ± 4.5%
- melting point: 128 °C

Compound: Cc1nc(-c2ccc(S(C)(=O)=O)cc2)n(-c2ccc(F)cc2F)n1 [Example 11, 1-(2,4-difluoro-phenyl)-3-methyl-5-(4-methylsulfonyl-phenyl)-1H-1,2,4-triazole]
- melting point: 160 °C

Second part, led by results:

- melting point: 180 °C
Compound: Cc1nc(-c2ccc(S(C)(=O)=O)cc2)n(-c2ccc([N+](=O)[O-])cc2)n1 [Example 12, 3-methyl-5-(4-methylsulfonyl-phenyl)-1-(4-nitro-phenyl)-1H-1,2,4-triazole]

- melting point: 194 °C
Compound: Cc1nc(-c2ccc(S(C)(=O)=O)cc2)n(-c2ccc(F)c(F)c2)n1 [Example 13, 1-(3,4-difluoro-phenyl)-3-methyl-5-(4-methylsulfonyl-phenyl)-1H-1,2,4-triazole]

- melting point: 186 °C
Compound: COc1ccc(-n2nc(C)nc2-c2ccc(S(C)(=O)=O)cc2)cc1OC [Example 14, 1-(3,4-dimethoxy-phenyl)-3-methyl-5-(4-methylsulfonyl-phenyl)-1H-1,2,4-triazole]

- % COX-1 inhibition (COX-1; concentration 1 μM): +2 ± 7.0%
- selective inhibition of COX-2 (in words) (COX-2; concentration 1 μM): able to inhibit COX-2 selectively
- inhibition at 1 µM (COX-2; [1]): 18 ± 7%
- melting point: 200 °C
Compound: Cc1nc(-c2ccc(S(C)(=O)=O)cc2)n(-c2ccc(N(C)C)cc2)n1 [Example 15, 1-(4-dimethylamino-phenyl)-3-methyl-5-(4-methylsulfonyl-phenyl)-1H-1,2,4-triazole]
- inhibition of COX-1 (in words) (COX-1; concentration 1 μM): did not show any significant inhibition of COX-1

- % COX-1 inhibition (COX-1; concentration 1 μM): +8 ± 2.7%
- selective inhibition of COX-2 (in words) (COX-2; concentration 1 μM): able to inhibit COX-2 selectively
- inhibition at 1 µM (COX-2; [1]): 44 ± 6.8%
- COX-2 inhibitory potency compared with nimesulide (in words) (COX-2): even more potent
- melting point: 156 °C
Compound: COc1ccc(-n2nc(C(F)(F)F)nc2-c2ccc(S(C)(=O)=O)cc2)cc1 [Example 17, 1-(4-methoxy-phenyl)-5-(4-methylsulfonyl-phenyl)-3-trifluoromethyl-1H-1,2,4-triazole]
- inhibition of COX-1 (in words) (COX-1; concentration 1 μM): did not show any significant inhibition of COX-1

- melting point: 230 to 232 °C
Compound: CS(=O)(=O)c1ccc(-c2nc(C(F)(F)F)nn2-c2ccc(F)cc2)cc1 [Example 20, 1-(4-fluoro-phenyl)-5-(4-methylsulfonyl-phenyl)-3-trifluoromethyl-1H-1,2,4-triazole]

- melting point: 190 to 192 °C
Compound: CS(=O)(=O)c1ccc(-c2nc(C(F)(F)F)nn2-c2ccc(Cl)cc2)cc1 [Example 21, 1-(4-chloro-phenyl)-5-(4-methylsulfonyl-phenyl)-3-trifluoromethyl-1H-1,2,4-triazole]

- melting point: 136 °C
Compound: CS(=O)(=O)c1ccc(-c2nc(C(F)(F)F)nn2C2CCCCC2)cc1 [Example 22, 1-(cyclohexyl)-5-(4-methylsulfonyl-phenyl)-3-trifluoromethyl-1H-1,2,4-triazole]

- melting point: 142 °C
Compound: COc1ccc(Cn2nc(C(F)(F)F)nc2-c2ccc(S(C)(=O)=O)cc2)cc1OC [Example 23, 1-(3,4-dimethoxy-phenyl-methyl)-5-(4-methylsulfonyl-phenyl)-3-trifluoromethyl-1H-1,2,4-triazole]

- melting point: 148 °C
Compound: COc1ccc(-n2nc(C(F)(F)F)nc2-c2ccc(S(C)(=O)=O)cc2Cl)cc1 [Example 24, 5-(2-chloro-4-methylsulfonyl-phenyl)-1-(4-methoxy-phenyl)-3-trifluoromethyl-1H-1,2,4-triazole]

- melting point: 214 °C
Compound: CS(=O)(=O)c1ccc(-c2nc(C(F)(F)F)nn2-c2ccc(S(C)(=O)=O)cc2)cc1 [Example 26, 1,5-di-(4-methylsulfonyl-phenyl)-3-trifluoromethyl-1H-1,2,4-triazole]

- melting point: 140 °C
Compound: COc1ccc(-n2nc(C(F)(F)F)nc2-c2ccc(S(C)(=O)=O)cc2)cc1OC [Example 27, 1-(3,4-dimethoxy-phenyl)-5-(4-methylsulfonyl-phenyl)-3-trifluoromethyl-1H-1,2,4-triazole]

- melting point: 185 °C
Compound: CS(=O)(=O)c1ccc(-c2nc(C(F)(F)F)nn2-c2ccc3c(c2)OCO3)cc1 [Example 28, 1-(3,4-methylenedioxy-phenyl)-5-(4-methylsulfonyl-phenyl)-3-trifluoromethyl-1H-1,2,4-triazole]

- melting point: 180 °C
Compound: COc1ccc(-n2nc(C(F)(F)F)nc2-c2ccc(S(C)(=O)=O)cc2)cc1F [Example 33, 1-(3-fluoro-4-methoxy-phenyl)-5-(4-methylsulfonyl-phenyl)-3-trifluoromethyl-1H-1,2,4-triazole]

- % COX-1 inhibition (COX-1; concentration 1 μM): −16 ± 10%
- selective inhibition of COX-2 (in words) (COX-2; concentration 1 μM): able to inhibit COX-2 selectively
- inhibition at 1 µM (COX-2; [1]): 78 ± 2%
- COX-2 inhibitory potency compared with nimesulide (in words) (COX-2): even more potent
Compound: COc1ccc(-n2nc(C(F)(F)F)nc2-c2ccc(S(N)(=O)=O)cc2)cc1 [Example 34, 1-(4-methoxy-phenyl)-5-(4-aminosulfonyl-phenyl)-3-trifluoromethyl-1H-1,2,4-triazole]
- inhibition of COX-1 (in words) (COX-1; concentration 1 μM): did not show any significant inhibition of COX-1

- % COX-1 inhibition (COX-1; concentration 0.1 μM): +7 ± 6.6%
- % COX-1 inhibition (COX-1; concentration 1 μM): +16 ± 12.2%
- % COX-1 inhibition (COX-1; concentration 10 μM): +13 ± 8.3%
- inhibition at 0.1 µM (COX-2; read-out: % COX-2 inhibition): 23 ± 5.4%
- inhibition at 1 µM (COX-2; read-out: % COX-2 inhibition): 30 ± 3.2%
- inhibition at 10 µM (COX-2; read-out: % COX-2 inhibition): 50%
Compound: CS(=O)(=O)Nc1ccc([N+](=O)[O-])cc1Oc1ccccc1 [Nimesulide, reference compound]
